# Source: PubChem BioAssay (NCI)
#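 Where inhibition never reached the appropriate level, the endpoint shown equals the highest concentration tested. Otherwise, values were interpolated linearly from a five-concentration, 48-hour dose response in 96-well plates. Here, GI50 denotes the concentration required for 50% inhibition of growth. The concentration for full growth arrest is given as TGI.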
# Tests used:
# Assay in all cases: DTP human tumour cell line panel, 48 h
# 786-0 renal = system: 786-0 renal
# A498 renal = system: A498 renal
# A549 NSCLC = system: A549 NSCLC
# ACHN renal = system: ACHN renal
# CAKI-1 renal = system: CAKI-1 renal
# CCRF-CEM leukemia = system: CCRF-CEM leukemia
# COLO 205 colon = system: COLO 205 colon
# DLD-1 colon = system: DLD-1 colon
# DMS 114 small cell lung = system: DMS 114 small cell lung
# DMS 273 small cell lung = system: DMS 273 small cell lung
# EKVX NSCLC = system: EKVX NSCLC
# HCC-2998 colon = system: HCC-2998 colon
# HCT-116 colon = system: HCT-116 colon
# HCT-15 colon = system: HCT-15 colon
# HL-60(TB) leukemia = system: HL-60(TB) leukemia
# HOP-18 NSCLC = system: HOP-18 NSCLC
# HOP-62 NSCLC = system: HOP-62 NSCLC
# HOP-92 NSCLC = system: HOP-92 NSCLC
# HT29 colon = system: HT29 colon
# IGROV1 ovarian = system: IGROV1 ovarian
# K-562 leukemia = system: K-562 leukemia
# KM12 colon = system: KM12 colon
# KM20L2 colon = system: KM20L2 colon
# LOX IMVI melanoma = system: LOX IMVI melanoma
# LXFL 529 NSCLC = system: LXFL 529 NSCLC
# M14 melanoma = system: M14 melanoma
# M19-MEL melanoma = system: M19-MEL melanoma
# MALME-3M melanoma = system: MALME-3M melanoma
# MOLT-4 leukemia = system: MOLT-4 leukemia
# NCI-H226 lung = system: NCI-H226 lung
# NCI-H23 lung = system: NCI-H23 lung
# NCI-H460 lung = system: NCI-H460 lung
# NCI-H522 lung = system: NCI-H522 lung
# OVCAR-3 ovarian = system: OVCAR-3 ovarian
# OVCAR-4 ovarian = system: OVCAR-4 ovarian
# OVCAR-5 ovarian = system: OVCAR-5 ovarian
# OVCAR-8 ovarian = system: OVCAR-8 ovarian
# RPMI-8226 leukemia = system: RPMI-8226 leukemia
# SF-268 CNS = system: SF-268 CNS
# SF-295 CNS = system: SF-295 CNS
# SF-539 CNS = system: SF-539 CNS
# SK-MEL-2 melanoma = system: SK-MEL-2 melanoma
# SK-MEL-28 melanoma = system: SK-MEL-28 melanoma
# SK-MEL-5 melanoma = system: SK-MEL-5 melanoma
# SK-OV-3 ovarian = system: SK-OV-3 ovarian
# SN12C renal = system: SN12C renal
# SNB-19 CNS = system: SNB-19 CNS
# SNB-75 CNS = system: SNB-75 CNS
# SNB-78 CNS = system: SNB-78 CNS
# SR leukemia = system: SR leukemia
# SW-620 colon = system: SW-620 colon
# TK-10 renal = system: TK-10 renal
# U251 CNS = system: U251 CNS
# UACC-257 melanoma = system: UACC-257 melanoma
# UACC-62 melanoma = system: UACC-62 melanoma
# UO-31 renal = system: UO-31 renal
# RXF 393 renal = system: RXF 393 renal
compound,measurement,setting,value
Cn1cc2ccccc2c1-c1nc(F)nc(Oc2ccc3c(c2)CC[C@@H]2C3CC[C@@]3(C)C2CC[C@@H]3O)n1 (stereo not given in full),TGI,786-0 renal,26.4 µM
same,TGI,A498 renal,36 µM
same,TGI,A549 NSCLC,54.4 µM
same,TGI,ACHN renal,35.4 µM
same,TGI,CAKI-1 renal,16.3 µM
same,TGI,CCRF-CEM leukemia,> 100 µM
same,TGI,COLO 205 colon,41.8 µM
same,TGI,DLD-1 colon,14.6 µM
same,GI50,DMS 114 small cell lung,6.42 µM
same,TGI,DMS 114 small cell lung,22 µM
same,TGI,DMS 273 small cell lung,> 58.5 µM
same,TGI,EKVX NSCLC,37.3 µM
same,TGI,HCC-2998 colon,33.5 µM
same,TGI,HCT-116 colon,36 µM
same,TGI,HCT-15 colon,12.2 µM
same,TGI,HL-60(TB) leukemia,21 µM
same,TGI,HOP-18 NSCLC,34.2 µM
same,TGI,HOP-62 NSCLC,27.9 µM
same,TGI,HOP-92 NSCLC,14.7 µM
same,TGI,HT29 colon,35.8 µM
same,TGI,IGROV1 ovarian,15.3 µM
same,TGI,K-562 leukemia,> 87 µM
same,TGI,KM12 colon,19.5 µM
same,TGI,KM20L2 colon,36.6 µM
same,TGI,LOX IMVI melanoma,32.6 µM
same,TGI,LXFL 529 NSCLC,8.89 µM
same,TGI,M14 melanoma,20.4 µM
same,TGI,M19-MEL melanoma,> 56.5 µM
same,TGI,MALME-3M melanoma,35.5 µM
same,TGI,MOLT-4 leukemia,> 56.9 µM
same,TGI,NCI-H226 lung,38.4 µM
same,TGI,NCI-H23 lung,27.6 µM
same,TGI,NCI-H460 lung,38.1 µM
same,TGI,NCI-H522 lung,12.7 µM
same,TGI,OVCAR-3 ovarian,21.8 µM
same,TGI,OVCAR-4 ovarian,16.4 µM
same,TGI,OVCAR-5 ovarian,33.9 µM
same,TGI,OVCAR-8 ovarian,19.7 µM
same,TGI,RPMI-8226 leukemia,21.7 µM
same,TGI,SF-268 CNS,28.7 µM
same,TGI,SF-295 CNS,63.5 µM
same,TGI,SF-539 CNS,29.1 µM
same,TGI,SK-MEL-2 melanoma,10.2 µM
same,TGI,SK-MEL-28 melanoma,27.1 µM
same,TGI,SK-MEL-5 melanoma,35.6 µM
same,TGI,SK-OV-3 ovarian,43.7 µM
same,TGI,SN12C renal,28.1 µM
same,TGI,SNB-19 CNS,35.5 µM
same,TGI,SNB-75 CNS,39.2 µM
same,TGI,SNB-78 CNS,> 61.4 µM
same,TGI,SR leukemia,21 µM
same,TGI,SW-620 colon,17.6 µM
same,TGI,TK-10 renal,18.3 µM
same,TGI,U251 CNS,13.2 µM
same,TGI,UACC-257 melanoma,45.8 µM
same,TGI,UACC-62 melanoma,32.7 µM
same,TGI,UO-31 renal,50.9 µM
CCSc1nc(-c2ccc(OC)cc2)c(C#N)c(=O)n1C1OCC(OC(C)=O)C(OC(C)=O)C1OC(C)=O (stereo not given),TGI,786-0 renal,> 100 µM
same,TGI,A498 renal,> 100 µM
same,TGI,A549 NSCLC,> 100 µM
same,TGI,ACHN renal,> 100 µM
same,TGI,CAKI-1 renal,> 100 µM
same,TGI,COLO 205 colon,> 100 µM
same,TGI,DLD-1 colon,> 100 µM
same,TGI,DMS 114 small cell lung,> 100 µM
same,TGI,DMS 273 small cell lung,> 100 µM
same,TGI,EKVX NSCLC,> 100 µM
same,TGI,HCC-2998 colon,> 100 µM
same,TGI,HCT-116 colon,> 100 µM
same,TGI,HCT-15 colon,> 100 µM
same,TGI,HOP-18 NSCLC,> 100 µM
same,TGI,HOP-62 NSCLC,> 100 µM
same,TGI,HOP-92 NSCLC,> 100 µM
same,TGI,HT29 colon,> 100 µM
same,TGI,IGROV1 ovarian,> 100 µM
same,TGI,K-562 leukemia,> 100 µM
same,TGI,KM12 colon,> 100 µM
same,TGI,KM20L2 colon,> 100 µM
same,TGI,LXFL 529 NSCLC,> 100 µM
same,TGI,M14 melanoma,> 100 µM
same,TGI,M19-MEL melanoma,> 100 µM
same,TGI,MALME-3M melanoma,> 100 µM
same,TGI,MOLT-4 leukemia,> 100 µM
same,TGI,NCI-H226 lung,> 100 µM
same,TGI,NCI-H23 lung,> 100 µM
same,TGI,NCI-H460 lung,> 100 µM
same,TGI,NCI-H522 lung,> 100 µM
same,TGI,OVCAR-4 ovarian,> 100 µM
same,TGI,OVCAR-5 ovarian,> 100 µM
same,TGI,RPMI-8226 leukemia,> 100 µM
same,TGI,RXF 393 renal,> 100 µM
same,TGI,SF-268 CNS,> 100 µM
same,TGI,SF-295 CNS,> 100 µM
same,TGI,SF-539 CNS,> 100 µM
same,TGI,SK-MEL-2 melanoma,> 100 µM
same,TGI,SK-MEL-28 melanoma,> 100 µM
same,TGI,SK-MEL-5 melanoma,> 100 µM
same,TGI,SK-OV-3 ovarian,> 100 µM
same,TGI,SN12C renal,> 100 µM
same,TGI,SNB-19 CNS,> 100 µM
same,TGI,SNB-75 CNS,> 100 µM
same,TGI,SNB-78 CNS,> 100 µM
same,TGI,SR leukemia,> 100 µM
same,TGI,SW-620 colon,> 100 µM
same,TGI,TK-10 renal,> 100 µM
same,TGI,U251 CNS,> 100 µM
same,TGI,UACC-257 melanoma,> 100 µM
same,TGI,UACC-62 melanoma,> 100 µM
same,TGI,UO-31 renal,> 100 µM
O=C1C2=C(CCCC2)Nc2cccc3ncn1c23,TGI,786-0 renal,> 100 µM
same,TGI,A498 renal,> 100 µM
same,TGI,A549 NSCLC,> 100 µM
same,TGI,ACHN renal,> 100 µM
same,TGI,CCRF-CEM leukemia,> 100 µM
same,TGI,COLO 205 colon,> 100 µM
same,TGI,DLD-1 colon,> 100 µM
same,TGI,DMS 114 small cell lung,> 100 µM
same,TGI,DMS 273 small cell lung,> 100 µM
same,TGI,EKVX NSCLC,> 100 µM
same,TGI,HCC-2998 colon,> 100 µM
same,TGI,HCT-116 colon,> 100 µM
same,TGI,HCT-15 colon,> 100 µM
same,TGI,HL-60(TB) leukemia,> 100 µM
same,TGI,HOP-18 NSCLC,> 100 µM
same,TGI,HOP-62 NSCLC,> 100 µM
same,TGI,HOP-92 NSCLC,> 100 µM
same,TGI,K-562 leukemia,> 100 µM
same,TGI,KM12 colon,> 100 µM
same,TGI,KM20L2 colon,> 100 µM
same,TGI,LOX IMVI melanoma,> 100 µM
same,TGI,LXFL 529 NSCLC,> 100 µM
same,TGI,M14 melanoma,> 100 µM
same,TGI,M19-MEL melanoma,> 100 µM
same,TGI,MALME-3M melanoma,> 100 µM
same,TGI,MOLT-4 leukemia,> 100 µM
same,TGI,NCI-H23 lung,> 100 µM
same,TGI,NCI-H460 lung,> 100 µM
same,TGI,NCI-H522 lung,> 100 µM
same,TGI,OVCAR-3 ovarian,> 100 µM
same,TGI,OVCAR-5 ovarian,> 100 µM
same,TGI,OVCAR-8 ovarian,> 100 µM
same,TGI,RPMI-8226 leukemia,> 100 µM
same,TGI,RXF 393 renal,> 100 µM
same,TGI,SF-268 CNS,> 100 µM
same,TGI,SF-295 CNS,> 100 µM
same,TGI,SF-539 CNS,> 100 µM
same,TGI,SK-MEL-2 melanoma,> 100 µM
same,TGI,SK-MEL-28 melanoma,> 100 µM
same,TGI,SK-MEL-5 melanoma,> 100 µM
same,TGI,SK-OV-3 ovarian,> 100 µM
same,TGI,SN12C renal,> 100 µM
same,TGI,SNB-19 CNS,> 100 µM
same,TGI,SNB-78 CNS,> 100 µM
same,TGI,SR leukemia,> 100 µM
same,TGI,SW-620 colon,> 100 µM
same,TGI,TK-10 renal,> 100 µM
same,TGI,U251 CNS,> 100 µM
same,TGI,UACC-257 melanoma,> 100 µM
same,TGI,UACC-62 melanoma,> 100 µM
same,TGI,UO-31 renal,> 100 µM
